Patent US20260083126A1, “ANTIMICROBIAL COMPOSITIONS” (AHV International B.V., priority 2022, published 2026)
“Also recorded” adds a separate entry of the source.

Tests used:
HepG2 cell line = experiment: MTT cytotoxicity test; type: cell-based, human; settings: 24 h, 7.8 μM to 1 mM, emulsified with Tween-80/DMSO
Method: Scope. As standard tests cytotoxicity is measured on Caco-2 and HepG2 cell lines. Cytotoxicity of mentioned cell lines was determined by measuring the amount of converted MTT (3-(4,5-dimethylthiazol-2-yl)-2,5-diphenyltetrazolium bromide) by a mitochondrial dehydrogenase after exposure of various concentrations of the antimicrobial compounds. In living cells the dehydrogenase converts the soluble MTT into water insoluble purple formazan crystals that can not pass the cell membrane. The higher the metabolic activity of the cell, the more purple crystals are formed, the lower the cytotoxicity of the antimicrobial compound. HepG2 adherent cells were isolated from human liver and show epithelial morphology. Culture condition of the cells were followed based on the standard protocols. HepG2 cell line was cultured in 75-cm^2 culture flasks. Dulbecco's modified Eagle's minimum essential medium (DMEM)+Glutamax, supplemented with 10% (v/v) inactivated fetal calf serum (FCS) (Gibco), and penicillin (100 U/ml.)/streptomycin (100 μg/ml.) was utilized as medium for the growing cells. The cells were preserved in an incubator to provide them with the optimum moisture and temperature (humidified atmosphere of 95% air and 5% CO2 at 37° C. for 72 hours). The cells were grown on flat bottom 96-well plates to the appropriate density to run the experiments. The cells were exposed to increasing concentrations of emulsified test compound (8 concentration, ranging from 7.8 μM to 1 mM) in standard culture medium (Catalogue 31331028, ThemoFischer Scientific) for each cell line. It should be noted that all the experiments were conducted in FBS (Catalog A3840101, ThermoFischer Scientific) and antibiotic free medium. The concentration of Tween-80 and DMSO that is present in the assay to emulsify the antimicrobial compound was in the range from 0,007% to 1%. The cells were incubated for 24 h with emulsified test compound and the assay was performed based on the standard protocol. By the end of the experiment the medium (cell supernatants) was removed and the lysis buffer (0.04 M hydrochloric acid, in propan-2-ol) was added to each well to solubilize the purple formazan crystals. As the final step, the absorbance was recorded by a multi-well reader at 595 nm. Control experiment with emulsifiers Tween 80 and DMSO but without antimicrobial compounds was performed in a same way on both cell lines. The results from all experiments were expressed as mean #standard error of the mean (SEM) conducted in triplicate (three wells/condition) of three independent experiments. Differences between results were statistically evaluated using One-way ANOVA with Bonferroni post-hoc test.

[1] = test system: Staphylococcus epidermis ATCC 35984 biofilm; experiment: MBIC assay (crystal violet); type: cell-based, Staphylococcus epidermidis; settings: 48 h at 37° C., absorbance 540 nm
Method: The exact weighed amount was noted and the volume of solvent to reach a 80 mM dilution calculated. Half of the volume was added first, by adding Tween 80 and let stand for 5 minutes. In a second step, the other half of the volume DMSO was added and resuspended to help the dilution process. The closed tube was inverted 5-10 times and then vortexed very thoroughly for at least 30 seconds. If after this procedure crystals were still visible, the tube was placed in a shaker at 37° C. at 150 rpm for at least 30 minutes (it is indicated if the dissolution period was longer than 2 h). […] In case of Bis(4-Chlorophenyl) thiosulfonate, a lower concentrated stock solution of 2 mM needed to be prepared. For that, the required amount of compound was weighed in and 2% v/v Tween80 and 2% v/v DMSO of the end volume of the stock solution was added to the substance. This mix was heated in a water bath set to 40° C. and occasionally shaken. When the whole amount of the substance reached dissolution, the volume was filled up with growth medium until the end volume. This 2 mM stock solution of Bis(4-Chlorophenyl) thiosulfonate was used in the MIC plate and diluted two-fold, resulting in a testing range of Bis(4-Chlorophenyl) thiosulfonate from 1 mM to 0.002 mM.
Frozen aliquots of Staphylococcus epidermis ATCC 35984 and Pseudomonas aeruginosa ATCC 27853 were used to inoculate a tryptic soy agar (TSA) plate and were incubated overnight at 37° C. After incubation 3-5 well-isolated colonies with the same morphology were selected from the TSA plate and resuspended in 2 ml 0.9% saline solution with 3-6 glass beads and vortexed. The optical density of the bacterial suspension was measured at 600 nm (OD600) with a spectrophotometer (Evolution™ 201/220 UV-Visible Spectrophotometer, Thermo Fisher Scientific) and diluted to an OD600 of 0.2. The MBIC assay was performed in a 96-microtiter plate. […] The solution was resuspended and transferred to a flat-bottom 96-well plate and the absorbance measured at 540 nm with the spectrophotometer. […]

Row | SMILES | cytotoxic effect on HepG2 cells (MTT) (HepG2 cell line) | S. epidermidis MBIC90 [1] [mM]
1 | Clc1ccc(SSc2ccc(Cl)cc2)cc1 [Bis (4-chlorophenyl) disulfide, Bis(4-chlorophenyl) disulfide] | cytotoxic effects | >4
2 | O=S(=O)(Sc1ccc(Cl)cc1)c1ccc(Cl)cc1 [Bis (4-chlorophenyl) thiosulfonate, Bis(4-chlorophenyl) thiosulfonate] | cytotoxic effects | 
3 | Fc1ccc(SSc2ccc(F)cc2)cc1 [Bis (4-fluorophenyl) disulfide, Bis(4-fluorophenyl) disulfide] | cytotoxic effects | 
4 | CC(C)SS(=O)(=O)C(C)C [Di-isopropyl thiosulfonate] | cytotoxic effects; also recorded: cytotoxicity is lowest | 
5 | CCCSSCCC [Di-n-propyl disulfide, reference compound] |  | 4
6 | CCCSS(=O)(=O)CCC [Di-n-propyl thiosulfonate, reference compound] |  | 2
